Assay results published in patent US9241491B2, “Aerosol” (SABAN VENTURES PTY LIMITED, priority 2005, dated 2016).

Experiments:
[1] = Maximum peroxide concentration (peroxide density) in gas phase; type: physicochemical; details: for maximum achievable concentration for vapour systems: no evacuation; for Max. peroxide vapour concentration: initial 35% H2O2 solution
Spore strips = details: atmospheric pressure, below 80° C.; could not be achieved in less; cited from earlier work

## OO [hydrogen peroxide vapour, hydrogen peroxide]
[1]; 0% humidity
  maximum achievable concentration for vapour systems: 2.0 mg/L
[1]; 25° C., 40% RH
  maximum achievable concentration for vapour systems: 0.9 mg/L
[1]; 20 ° C., 10% RH
  Max. peroxide vapour concentration: 0.97 mg/L
[1]; 20 ° C., 20% RH
  Max. peroxide vapour concentration: 0.85 mg/L
[1]; 20 ° C., 40% RH
  Max. peroxide vapour concentration: 0.62 mg/L
[1]; 20 ° C., 80% RH
  Max. peroxide vapour concentration: 0.14 mg/L
[1]; 40 ° C., 10% RH
  Max. peroxide vapour concentration: 4.13 mg/L
[1]; 40 ° C., 20% RH
  Max. peroxide vapour concentration: 2.59 mg/L
[1]; 40 ° C., 40% RH
  Max. peroxide vapour concentration: 2.66 mg/L
[1]; 40 ° C., 80% RH
  Max. peroxide vapour concentration: 0.63 mg/L
[1]; 60 ° C., 10% RH
  Max. peroxide vapour concentration: 14.4 mg/L
[1]; 60 ° C., 20% RH
  Max. peroxide vapour concentration: 12.60 mg/L
[1]; 60 ° C., 40% RH
  Max. peroxide vapour concentration: 9.1 mg/L
[1]; 60 ° C., 80% RH
  Max. peroxide vapour concentration: 2.31 mg/L
Spore strips
  time to sterilization: ≥ 6 h
